Measurements from US12486284B2, “Ubiquitin-specific protease inhibitor and preparation method therefor and use thereof” (CHASER THERAPEUTICS, INC., priority 2019, dated 2025).
Like-named read-outs stand apart in the source and are kept apart here.

Key:
USP25 = biological target: T1, USP25 (Homo sapiens, UniProt Q9UHP3); assay: USP25 activity measured using ubiquitin-rhodamine 110 method; assay type: biochemical; details: for IC50: purified USP25 15 nM, ubiquitin-rhodamine 110 125 nM, 30 min preincubation; for IC50(F)/IC50(E) USP25: ratio of IC50 of related 3-NH2 compound (F) to IC50 of 3-NHMe compound disclosed herein (E)
T1 construct: purchased R&D Systems
T1 sequence (Q9UHP3 1-1055): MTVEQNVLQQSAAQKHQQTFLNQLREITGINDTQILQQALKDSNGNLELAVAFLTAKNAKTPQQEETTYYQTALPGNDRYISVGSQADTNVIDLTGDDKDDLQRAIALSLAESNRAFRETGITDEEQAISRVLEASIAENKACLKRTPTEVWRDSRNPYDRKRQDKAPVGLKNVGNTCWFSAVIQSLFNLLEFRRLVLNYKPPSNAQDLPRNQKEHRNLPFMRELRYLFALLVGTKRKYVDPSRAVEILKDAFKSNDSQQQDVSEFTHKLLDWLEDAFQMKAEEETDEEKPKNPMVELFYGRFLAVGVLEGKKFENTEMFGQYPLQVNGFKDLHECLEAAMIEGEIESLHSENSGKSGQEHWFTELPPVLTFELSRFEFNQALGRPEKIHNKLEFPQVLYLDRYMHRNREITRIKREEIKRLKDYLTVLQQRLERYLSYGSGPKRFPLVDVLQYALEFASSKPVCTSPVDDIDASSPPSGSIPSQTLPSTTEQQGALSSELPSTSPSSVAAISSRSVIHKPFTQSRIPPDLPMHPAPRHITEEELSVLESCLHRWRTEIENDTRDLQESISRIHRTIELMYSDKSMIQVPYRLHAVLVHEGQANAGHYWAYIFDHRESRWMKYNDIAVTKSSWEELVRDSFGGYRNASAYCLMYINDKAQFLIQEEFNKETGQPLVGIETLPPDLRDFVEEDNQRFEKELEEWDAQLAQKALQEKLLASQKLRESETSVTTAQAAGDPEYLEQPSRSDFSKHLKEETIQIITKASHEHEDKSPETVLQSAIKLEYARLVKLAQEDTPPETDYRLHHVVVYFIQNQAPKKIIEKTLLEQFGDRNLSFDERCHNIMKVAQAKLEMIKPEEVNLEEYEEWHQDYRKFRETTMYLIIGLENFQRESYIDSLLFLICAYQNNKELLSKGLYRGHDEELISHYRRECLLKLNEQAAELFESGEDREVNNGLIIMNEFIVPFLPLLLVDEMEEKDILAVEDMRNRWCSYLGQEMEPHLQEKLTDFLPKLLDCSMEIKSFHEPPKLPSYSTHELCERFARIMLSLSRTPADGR
Method in brief: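 Compound preincubated 30 min at room temperature with USP25 (15 nM final) in 20 mM Tris-HCl pH 8.0, 2 mM CaCl2, 3 mM BME, 0.01% Prionix, 0.01% Triton X-100, ≤0.5% DMSO. Ubiquitin-rhodamine 110 (125 nM) then added; fluorescence (ex 485/em 535 nm) read immediately. IC50 from % inhibition across concentrations.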

USP28 = biological target: T2, USP28 (Homo sapiens, UniProt Q96RU2); assay: USP28 activity measured using ubiquitin-rhodamine 110 method; assay type: biochemical; details: for IC50: purified USP28 4 nM, ubiquitin-rhodamine 110 125 nM, 30 min preincubation; for IC50(F)/IC50(E) USP28: ratio of IC50 of related 3-NH2 compound (F) to IC50 of 3-NHMe compound disclosed herein (E)
T2 construct: purchased R&D Systems
T2 sequence (Q96RU2 1-1077): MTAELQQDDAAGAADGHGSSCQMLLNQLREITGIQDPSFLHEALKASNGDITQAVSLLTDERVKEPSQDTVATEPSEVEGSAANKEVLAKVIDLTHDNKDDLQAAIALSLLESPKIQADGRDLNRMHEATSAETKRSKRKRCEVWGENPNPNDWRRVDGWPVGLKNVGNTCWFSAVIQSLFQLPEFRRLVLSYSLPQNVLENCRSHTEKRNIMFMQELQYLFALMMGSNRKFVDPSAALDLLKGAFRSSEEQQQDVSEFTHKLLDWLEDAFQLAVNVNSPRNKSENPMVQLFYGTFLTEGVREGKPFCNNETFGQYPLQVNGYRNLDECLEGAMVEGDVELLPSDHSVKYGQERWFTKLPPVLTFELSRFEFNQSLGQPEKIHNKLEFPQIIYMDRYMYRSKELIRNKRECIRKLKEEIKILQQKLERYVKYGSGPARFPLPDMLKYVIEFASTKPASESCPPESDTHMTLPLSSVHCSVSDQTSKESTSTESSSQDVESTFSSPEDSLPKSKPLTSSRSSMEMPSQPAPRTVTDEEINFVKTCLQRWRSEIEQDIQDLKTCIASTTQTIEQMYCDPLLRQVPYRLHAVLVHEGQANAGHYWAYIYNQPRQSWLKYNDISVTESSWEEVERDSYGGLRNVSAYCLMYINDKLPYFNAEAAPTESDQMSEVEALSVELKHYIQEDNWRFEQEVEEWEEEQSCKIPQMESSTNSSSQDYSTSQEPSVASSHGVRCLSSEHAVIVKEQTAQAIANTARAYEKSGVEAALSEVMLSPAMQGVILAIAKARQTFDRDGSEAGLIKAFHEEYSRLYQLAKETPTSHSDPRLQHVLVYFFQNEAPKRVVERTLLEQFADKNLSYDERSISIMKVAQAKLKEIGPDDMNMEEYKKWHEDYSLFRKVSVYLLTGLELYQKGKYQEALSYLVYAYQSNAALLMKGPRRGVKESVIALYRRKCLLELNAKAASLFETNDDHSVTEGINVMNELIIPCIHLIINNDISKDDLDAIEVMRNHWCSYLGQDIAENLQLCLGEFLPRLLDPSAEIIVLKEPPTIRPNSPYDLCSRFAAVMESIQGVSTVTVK
Method in brief: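 Purified USP28 (4 nM final) preincubated with compounds 30 min at room temperature in Tris-HCl pH 8.0 buffer with CaCl2, BME, Prionix and Triton X-100 (DMSO ≤0.5%). Ubiquitin-rhodamine 110 added to 125 nM; fluorescence (ex 485/em 535 nm) read immediately, inhibition versus DMSO control used to calculate IC50.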

[1] = read-out: Inhibitory activity against USP25 (IC50)
[2] = read-out: Inhibitory activity against USP28 (IC50)
[3] = Inhibitory activity against USP25 (IC50)
[4] = Inhibitory activity against USP28 (IC50)

Row | SMILES | IC50 (USP25; [1]) [nM] | IC50 (USP28; [2]) [nM] | IC50 (USP25; [3]) [nM] | IC50(F)/IC50(E) USP25 (USP25) | IC50 (USP28; [4]) [nM] | IC50(F)/IC50(E) USP28 (USP28)
1 | CNc1c(C(=O)NCCc2ccc(N3C[C@H]4CC[C@@H](C3)N4)cc2)sc2nc(Cl)ccc12 [Compound I-82] | 100 to 1000 | 100 to 1000 |  |  |  | 
2 | CNc1c(C(=O)N[C@@H]2Cc3ccc(N4CC5CCC(C4)N5)cc3C2)sc2nc(C)ccc12 [Compound I-83] | 5000 to 10000 | 100 to 1000 |  |  |  | 
3 | CNc1c(C(=O)N[C@H]2Cc3ccc(N4CC5CCC(C4)N5)cc3C2)sc2nc(C)ccc12 [Compound I-84] | > 10000 | 1000 to 5000 |  |  |  | 
4 | CNc1c(C(=O)N[C@H]2COc3cc(N4CC5CCC(C4)N5)ccc3C2)sc2nc(C)ccc12 [Compound I-85] |  |  | < 100 | >8 | < 100 | 8.8
5 | CNc1c(C(=O)NC2COc3cc(N4CC5CCC(C4)N5)ccc3C2)sc2nc(C)ccc12 (stereo not shown) [Compound I-86] | 1000 to 5000 | 100 to 1000 |  |  |  | 
6 | CNc1c(C(=O)NC2CCc3cc(N4CC5CCC(C4)N5)ccc3C2)sc2nc(C)ccc12 (stereo not shown) [Compound I-89] | 5000 to 10000 | 1000 to 5000 |  |  |  | 
7 | CNc1c(C(=O)N[C@H]2CCc3cc(N4CC5CCC(C4)N5)ccc3C2)sc2nc(C)ccc12 [Compound I-90] | 100 to 1000 |  |  | >6 | < 100 | 5.5
8 | CCc1ccc2c(NC)c(C(=O)N[C@H]3COc4cc(N5CC6CCC(C5)N6)ccc4C3)sc2n1 [Compound I-91] |  |  | < 100 |  | < 100 | 
9 | CNc1c(C(=O)NCC(C)(C)c2ccc(N3CC4CCC(C3)N4)cc2F)sc2nc(C)ccc12 [Compound I-92] | > 10000 | 1000 to 5000 |  |  |  | 
10 | CNc1c(C(=O)NCCc2ccc(N3C[C@H]4CC[C@@H](C3)N4)cc2)sc2nc(N)ccc12 [Compound I-93, N-4-(3,8-diazabicyclo[3.2.1]octan-3-yl)phenethyl-6-amino-3-methylaminothiophene[2,3-b]pyridine-2-carboxamide] | 100 to 1000 | 100 to 1000 |  |  |  | 
11 | CNc1ccc2c(NC)c(C(=O)NCCc3ccc(N4C[C@H]5CC[C@@H](C4)N5)cc3)sc2n1 [Compound I-94] | > 10000 | 100 to 1000 |  |  |  | 
12 | CNc1c(C(=O)NCCc2ccc(N3C[C@H]4CC[C@@H](C3)N4)cc2)sc2nc(N)cc(C(F)F)c12 [Compound I-95] |  |  | < 100 |  | < 100 | 
